Target: T1, catalytic domain of human recombinant MMP-3 (Homo sapiens, UniProt P08254)
T1 construct: made in house
Test: In vitro MMP inhibition assay, MMP-3 catalytic domain (fluorogenic peptide substrate cleavage, Ki)
Type: biochemical
Conditions: human MMP-3, catalytic domain (CD); read-out: hMMP Ki 03/CD
Method in brief: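 The MMP-3 catalytic domain was expressed in E. coli and refolded with zinc. It was preincubated with inhibitor for 1 hr at room temperature in MES buffer pH 6.0 with 1% DMSO, then 4 μM Mca/Dnp fluorogenic peptide was added (ex 330/em 420 nm). Ki came from Morrison-equation fits of rates, with substrate at or below Km and no substrate correction.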

T1 sequence (P08254 100-272 limits assumed): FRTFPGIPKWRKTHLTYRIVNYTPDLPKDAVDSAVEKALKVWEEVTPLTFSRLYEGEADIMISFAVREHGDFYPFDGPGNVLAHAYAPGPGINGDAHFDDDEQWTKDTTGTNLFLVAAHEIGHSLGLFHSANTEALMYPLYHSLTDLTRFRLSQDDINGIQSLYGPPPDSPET

Ki: 1570 nM
Compound: COc1cccc(CNC(=O)c2nc3ccc(F)c(OCCC4CCN(C(=O)CO)CC4)c3c(=O)[nH]2)c1 [Example 34, 6-fluoro-5-[2-(1-glycoloylpiperidin-4-yl)ethoxy]-N-(3-methoxybenzyl)-4-oxo-3,4-dihydroquinazoline-2-carboxamide]
